Experimental data published in patent US9051310B2, “Nicotinamide derivative or salt thereof” (FUJIFILM Corporation, priority 2011, dated 2015).

What was measured:
[1] = tested on: THP-1 cells (TNFα secretion on human IgG-coated plate); experiment: TNFα generation assay; type: cell-based; conditions: IFN-γ differentiated THP-1 cells, 7 hours, AlphaLISA, read-out: IC50 of TNFα generation inhibitory activity
Method: THP-1 cells (2×10^5 cells/ml), which were human monocytoid cells, were cultured in the presence of 10 ng/ml IFN-γ (Roche) for 2 days, and they were induced to differentiate into macrophage-like cells. The differentiation-induced THP-1 cells were recovered, and the cells (1×10^6 cell/ml) were then allowed to react with a predetermined concentration of test compound at room temperature for 30 minutes. On the other hand, 100 μl of human IgG (10 μg/ml, SIGMA-ALDRICH) diluted with PBS was added to a 96-well plate, and it was then incubated at room temperature overnight. Thereafter, the resultant was washed with PBS twice to produce a human IgG-coated plate. A cell fluid that contained a compound was plated on the obtained human IgG-coated plate (5×10^4 cells/well), and it was then cultured for 7 hours. Thereafter, the cultured solution was recovered, and the amount of TNFα secreted into the culture solution was then measured by the AlphaLISA method (PerkinElmer).

[2] = target: T1, glutathione S-transferase (GST)-linked full-length human Syk protein (Homo sapiens, UniProt P43405); experiment: Syk enzyme assay; type: biochemical; conditions: 0.83 nM Syk, time-resolved fluorescence; read-out: IC50 of Syk-inhibitory activity
T1 construct: glutathione S-transferase (GST)-linked full-length human Syk protein; purchased Carna Biosciences; host or cells: Baculovirus expression system
Method in brief: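 Phosphotyrosine on a biotin-peptide substrate (0.5 μM) was read by time-resolved fluorescence at 615 and 665 nm with Eu-anti-pTyr antibody and APC-streptavidin after 1 h EDTA stop.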

Structure (SMILES) | IC50 [1] | IC50 [2]
C[C@H](N)[C@H](Nc1nc(Nc2cncc(-n3cccn3)c2)c(C(N)=O)cc1F)C1CCC1 [Example 2-24, 2-((5-(1H-pyrazol-1-yl)pyridin-3-yl)amino)-6-(((1R,2S)-2-amino-1-cyclobutylpropyl)amino)-5-fluoronicotinamide] | 130 to 200 nM | < 10 nM
COc1nn(CC(F)F)c2ccc(Nc3nc(N[C@H](CC(C)C)[C@H](C)N)c(F)cc3C(N)=O)cc12 [Example 2-54, 6-(((2S,3R)-2-amino-5-methylhexan-3-yl)amino)-2-((1-(2,2-difluoroethyl)-3-methoxy-1H-indazol-5-yl)amino)-5-fluoronicotinamide] | 130 to 200 nM | < 10 nM
CC[C@H](N)[C@@H](CC)Nc1nc(Nc2cccc3c2cnn3CC)c(C(N)=O)cc1F [Example 2-101, 6-(((3R,4S)-4-aminohexan-3-yl)amino)-2-((1-ethyl-1H-indazol-4-yl)amino)-5-fluoronicotinamide] | 130 to 200 nM | < 10 nM
CCC[C@@H](Nc1nc(Nc2cc(F)c3c(c2)c(OC)nn3C)c(C(N)=O)cc1F)[C@H](C)N [Example 2-153, 6-(((2S,3R)-2-aminohexan-3-yl)amino)-5-fluoro-2-((7-fluoro-3-methoxy-1-methyl-1H-indazol-5-yl)amino)nicotinamide] | 130 to 200 nM | < 10 nM
CCn1ncc2c(Nc3nc(N[C@H](C4CC4)[C@H](C)N)c(F)cc3C(N)=O)cc(F)cc21 [Example 2-372, 6-(((1R,2S)-2-amino-1-cyclopropylpropyl)amino)-2-((1-ethyl-6-fluoro-1H-indazol-4-yl)amino)-5-fluoronicotinamide] | 130 to 200 nM | < 10 nM
CCOC[C@@H](Nc1nc(Nc2ccc3c(cnn3C)c2)c(C(N)=O)cc1F)[C@H](C)N [Example 2-179, 6-(((2S,3S)-3-amino-1-ethoxybutan-2-yl)amino)-5-fluoro-2-((1-methyl-1H-indazol-5-yl)amino)nicotinamide] | 130 to 200 nM | 10 to 50 nM
CCC[C@@H](Nc1nc(Nc2ccc3c(c2)c(C)nn3CC(F)F)c(C(N)=O)cc1F)[C@H](C)N [Example 2-138] | < 65 nM | < 10 nM
CNc1nn(C)c2ccc(Nc3nc(N[C@@H]4CCCC[C@@H]4N)c(F)cc3C(N)=O)cc12 [Example 2-496, 6-(((1R,2S)-2-aminocyclohexyl)amino)-5-fluoro-2-((1-methyl-3-(methylamino)-1H-indazol-5-yl)amino)nicotinamide] | 130 to 200 nM | < 10 nM
C[C@H](N)[C@H](Nc1nc(Nc2ccc3ncccc3c2)c(C(N)=O)cc1F)C1CCC1 [Example 2-8, 6-(((1R,2S)-2-amino-1-cyclobutylpropyl)amino)-5-fluoro-2-(quinolin-6-ylamino)nicotinamide] | < 65 nM | < 10 nM
CCCC[C@@H](Nc1nc(Nc2cncc(-n3cccn3)c2)c(C(N)=O)cc1F)[C@H](C)N [Example 2-69, 2-((5-(1H-pyrazol-1-yl)pyridin-3-yl)amino)-6-(((2S,3R)-2-aminoheptan-3-yl)amino)-5-fluoronicotinamide] | 130 to 200 nM | 10 to 50 nM
COCCn1nc(C)c2cc(Nc3nc(N[C@@H](CN)CC(C)C)c(F)cc3C(N)=O)ccc21 [Example 2-130] | 65 to 130 nM | < 10 nM
COCCn1ncc2cc(Nc3nc(N[C@H](c4cccc(F)c4)[C@H](C)N)c(F)cc3C(N)=O)ccc21 [Example 2-454, 6-(((1R,2S)-2-amino-1-(3-fluorophenyl)propyl)amino)-5-fluoro-2-((1-(2-methoxyethyl)-1H-indazol-5-yl)amino)nicotinamide] | 65 to 130 nM | < 10 nM
C[C@H](N)[C@H](Nc1nc(Nc2ccc(F)cc2)c(C(N)=O)cc1F)C1CC1 [Example 2-58, 6-(((1R,2S)-2-amino-1-cyclopropylpropyl)amino)-5-fluoro-2-((4-fluorophenyl)amino)nicotinamide] | 130 to 200 nM | 10 to 50 nM
CCn1ncc2cc(Nc3nc(N[C@H](c4cccc(F)c4)[C@H](C)N)c(F)cc3C(N)=O)ccc21 [Example 2-413] | 65 to 130 nM | < 10 nM

Continued, values first:

IC50 [1] | IC50 [2] | Structure (SMILES)
130 to 200 nM | < 10 nM | COc1cc(Nc2nc(N[C@H](C3CCC3)[C@H](C)N)c(F)cc2C(N)=O)cc(OC)n1 [Example 2-6, 6-(((1R,2S)-2-amino-1-cyclobutylpropyl)amino)-2-((2,6-dimethoxypyridin-4-yl)amino)-5-fluoronicotinamide]
130 to 200 nM | < 10 nM | CC[C@@H](Nc1nc(Nc2ccc(C)c(C)c2)c(C(N)=O)cc1F)[C@H](C)N [Example 2-477, 6-(((2S,3R)-2-aminopentan-3-yl)amino)-2-((3,4-dimethylphenyl)amino)-5-fluoronicotinamide]
130 to 200 nM | < 10 nM | CC[C@H](N)[C@@H](CC)Nc1nc(Nc2ccnc(OCCOC)c2)c(C(N)=O)cc1F [Example 2-43, 6-(((3R,4S)-4-aminohexan-3-yl)amino)-5-fluoro-2-((2-(2-methoxyethoxy)pyridin-4-yl)amino)nicotinamide]
130 to 200 nM | 10 to 50 nM | CC[C@@H](Nc1nc(Nc2cncc(-n3cc(Cl)cn3)c2)c(C(N)=O)cc1F)[C@H](C)N [Example 2-522, 6-(((2S,3R)-2-aminopentan-3-yl)amino)-2-((5-(4-chloro-1H-pyrazol-1-yl)pyridin-3-yl)amino)-5-fluoronicotinamide]
65 to 130 nM | < 10 nM | CCn1ncc2cc(Nc3nc(N[C@H](c4ccccc4F)[C@H](C)N)c(F)cc3C(N)=O)ccc21 [Example 2-410, 6-(((1R,2S)-2-amino-1-(2-fluorophenyl)propyl)amino)-2-((1-ethyl-1H-indazol-5-yl)amino)-5-fluoronicotinamide]
65 to 130 nM | < 10 nM | CC[C@@H](Nc1nc(Nc2ccc3c(c2)c(OC)nn3CCOC)c(C(N)=O)cc1F)[C@H](C)N [Example 2-125, 6-(((2S,3R)-2-aminopentan-3-yl)amino)-5-fluoro-2-((3-methoxy-1-(2-methoxyethyl)-1H-indazol-5-yl)amino)nicotinamide]
130 to 200 nM | < 10 nM | CCCC[C@@H](Nc1nc(Nc2cnc3c(c2)c(OC)nn3C)c(C(N)=O)cc1F)[C@H](C)N [Example 2-254, 6-(((2S,3R)-2-aminoheptan-3-yl)amino)-5-fluoro-2-((3-methoxy-1-methyl-1H-pyrazolo[3,4-b]pyridin-5-yl)amino)nicotinamide]
130 to 200 nM | < 10 nM | Cc1cccc(Nc2nc(N[C@H](C3CCC3)[C@H](C)N)c(F)cc2C(N)=O)c1 [Example 2-25, 6-(((1R,2S)-2-amino-1-cyclobutylpropyl)amino)-5-fluoro-2-(m-tolylamino)nicotinamide]
130 to 200 nM | < 10 nM | CC[C@@H](Nc1nc(Nc2cc(F)c3c(c2)c(OC)nn3C)c(C(N)=O)cc1F)[C@H](C)N [Example 2-152, 6-(((2S,3R)-2-aminopentan-3-yl)amino)-5-fluoro-2-((7-fluoro-3-methoxy-1-methyl-1H-indazol-5-yl)amino)nicotinamide]
65 to 130 nM | < 10 nM | CC[C@@H](Nc1nc(Nc2cccc(-n3nccn3)c2)c(C(N)=O)cc1F)[C@H](C)N [Example 2-475, 2-((3-(2H-1,2,3-triazol-2-yl)phenyl)amino)-6-(((2S,3R)-2-aminopentan-3-yl)amino)-5-fluoronicotinamide]
65 to 130 nM | < 10 nM | COc1cccc(Nc2nc(N[C@H](C3CC3)[C@H](C)N)c(F)cc2C(N)=O)c1 [Example 2-46, 6-(((1R,2S)-2-amino-1-cyclopropylpropyl)amino)-5-fluoro-2-((3-methoxyphenyl)amino)nicotinamide]
65 to 130 nM | < 10 nM | CCCC[C@@H](Nc1nc(Nc2ccc3cnn(C)c3c2)c(C(N)=O)cc1F)[C@H](C)N [Example 2-38, 6-(((2S,3R)-2-aminoheptan-3-yl)amino)-5-fluoro-2-((1-methyl-1H-indazol-6-yl)amino)nicotinamide]
65 to 130 nM | < 10 nM | COCCOc1cc(Nc2nc(N[C@H](C3CCC3)[C@H](C)N)c(F)cc2C(N)=O)ccn1 [Example 2-7, 6-(((1R,2S)-2-amino-1-cyclobutylpropyl)amino)-5-fluoro-2-((2-(2-methoxyethoxy)pyridin-4-yl)amino)nicotinamide]
130 to 200 nM | < 10 nM | NC(=O)c1cc(F)c(N[C@@H]2CCCC[C@@H]2N)nc1Nc1cccc(F)c1 [Example 2-440, 6-(((1R,2S)-2-aminocyclohexyl)amino)-5-fluoro-2-((3-fluorophenyl)amino) nicotinamide]
130 to 200 nM | 10 to 50 nM | CC[C@H](N)[C@H](Nc1nc(Nc2cncc(-n3cccn3)c2)c(C(N)=O)cc1F)C1CC1 [Example 2-366, 2-((5-(1H-pyrazol-1-yl)pyridin-3-yl)amino)-6-(((1R,2S)-2-amino-1-cyclopropylbutyl)amino)-5-fluoronicotinamide]
65 to 130 nM | < 10 nM | CCC[C@@H](Nc1nc(Nc2cnc(OCC)c(-n3ccnn3)c2)c(C(N)=O)cc1F)[C@H](C)N [Example 2-207, 6-(((2S,3R)-2-aminohexan-3-yl)amino)-2-((6-ethoxy-5-(1H-1,2,3-triazol-1-yl)pyridin-3-yl)amino)-5-fluoronicotinamide]
